ChEMBL document CHEMBL4507256 (2021)

How the values were obtained:
[1] = molecular target: Casein kinase I isoform gamma-3 (Homo sapiens) (UniProt Q9Y6M4); settings: Compound concentration 1000.0 nM
[2] = system: Tyrosine-protein kinase ABL1 (Homo sapiens), P00519 [M351T]; settings: Compound concentration 1000.0 nM
[3] = molecular target: T1, Muscarinic acetylcholine receptor M4 (Homo sapiens) (UniProt P08173); test: M4 (h) CEREP ligand profiling; settings: Compound concentration 10.0 uM
T1 sequence (whole entry): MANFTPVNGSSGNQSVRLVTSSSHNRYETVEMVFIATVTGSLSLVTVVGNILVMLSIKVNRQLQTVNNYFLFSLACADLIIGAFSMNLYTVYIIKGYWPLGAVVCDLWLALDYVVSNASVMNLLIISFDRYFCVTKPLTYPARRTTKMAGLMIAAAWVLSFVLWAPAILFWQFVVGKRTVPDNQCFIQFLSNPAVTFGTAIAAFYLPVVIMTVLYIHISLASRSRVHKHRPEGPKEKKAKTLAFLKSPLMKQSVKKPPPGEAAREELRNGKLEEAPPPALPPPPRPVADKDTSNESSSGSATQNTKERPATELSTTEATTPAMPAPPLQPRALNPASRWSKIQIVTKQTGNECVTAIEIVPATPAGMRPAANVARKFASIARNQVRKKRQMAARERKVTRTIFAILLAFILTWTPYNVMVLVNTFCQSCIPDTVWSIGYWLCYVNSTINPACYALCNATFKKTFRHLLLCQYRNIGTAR

[4] = molecular target: Histamine H2 receptor (Homo sapiens) (UniProt P25021); settings: Compound concentration 10.0 uM
[5] = molecular target: T2, Muscarinic acetylcholine receptor M1 (Homo sapiens) (UniProt P11229); test: M1 (h) CEREP ligand profiling; settings: Compound concentration 10.0 uM
T2 sequence (whole entry): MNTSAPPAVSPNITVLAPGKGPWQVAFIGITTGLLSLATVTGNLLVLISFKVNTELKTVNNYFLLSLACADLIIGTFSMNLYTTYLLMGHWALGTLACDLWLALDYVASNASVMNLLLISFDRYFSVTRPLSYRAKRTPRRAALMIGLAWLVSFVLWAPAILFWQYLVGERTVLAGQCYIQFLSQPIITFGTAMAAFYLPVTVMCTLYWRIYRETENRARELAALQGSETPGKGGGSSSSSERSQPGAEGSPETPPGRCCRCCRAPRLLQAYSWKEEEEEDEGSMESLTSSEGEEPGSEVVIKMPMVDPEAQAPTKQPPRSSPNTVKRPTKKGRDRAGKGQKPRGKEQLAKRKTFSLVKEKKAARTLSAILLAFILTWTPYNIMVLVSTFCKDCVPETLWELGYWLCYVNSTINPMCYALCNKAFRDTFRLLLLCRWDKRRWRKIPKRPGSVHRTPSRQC

[6] = molecular target: Substance-P receptor (Homo sapiens) (UniProt P25103); test: NK1 (h) CEREP ligand profiling; settings: Compound concentration 10.0 uM
[7] = molecular target: T3, Muscarinic acetylcholine receptor M2 (Homo sapiens) (UniProt P08172); test: M2 (h) CEREP ligand profiling; settings: Compound concentration 10.0 uM
T3 sequence (whole entry): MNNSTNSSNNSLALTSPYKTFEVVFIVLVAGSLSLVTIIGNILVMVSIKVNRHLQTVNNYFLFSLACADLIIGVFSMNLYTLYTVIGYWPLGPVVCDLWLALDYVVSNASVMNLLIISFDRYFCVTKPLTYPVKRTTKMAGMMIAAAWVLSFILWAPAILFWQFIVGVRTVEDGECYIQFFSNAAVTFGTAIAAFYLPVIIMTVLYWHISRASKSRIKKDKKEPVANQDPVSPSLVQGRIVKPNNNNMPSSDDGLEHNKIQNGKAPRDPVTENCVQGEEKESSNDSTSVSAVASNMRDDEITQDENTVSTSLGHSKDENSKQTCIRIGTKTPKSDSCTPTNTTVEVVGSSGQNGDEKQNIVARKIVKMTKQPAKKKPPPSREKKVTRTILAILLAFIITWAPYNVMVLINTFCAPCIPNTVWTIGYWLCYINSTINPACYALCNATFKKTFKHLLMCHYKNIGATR

[8] = molecular target: C-C chemokine receptor type 1 (Homo sapiens) (UniProt P32246); test: CCR1 (h) CEREP ligand profiling; settings: Compound concentration 10.0 uM
[9] = molecular target: Endothelin-1 receptor (Homo sapiens) (UniProt P25101); test: ETA (h) CEREP ligand profiling; settings: Compound concentration 10.0 uM
[10] = molecular target: Sodium-dependent dopamine transporter (Homo sapiens) (UniProt Q01959); test: DA transporter(h) CEREP ligand profiling; settings: Compound concentration 10.0 uM
[11] = molecular target: Ca2+ channel (voltage-gated L-type calcium channel family) (Homo sapiens, UniProt O60840+Q01668+Q13698+Q13936); test: Ca2+ channel CEREP ligand profiling; format: protein assay; settings: probe penylalkylamine (ligand); compound concentration 10 uM
[12] = molecular target: Bombesin receptor (Homo sapiens) (UniProt P28336+P32247+P30550); test: BB (non-select) CEREP ligand profiling; format: protein assay; settings: Compound concentration 10.0 uM
[13] = molecular target: Type-1 angiotensin II receptor (Homo sapiens) (UniProt P30556); test: AT1 (h) CEREP ligand profiling; settings: Compound concentration 10.0 uM
[14] = molecular target: T4, GABA-A receptor; anion channel (Homo sapiens) (UniProt P14867+P47870+P18507+P28472+P48169+Q99928+Q9UN88+P34903+O00591+O14764+Q8N1C3+P18505+P78334+P47869+P31644+Q16445); test: Cl- channel CEREP ligand profiling; format: protein-complex assay; settings: Compound concentration 10.0 uM
[15] = molecular target: Muscarinic acetylcholine receptor M3 (Homo sapiens) (UniProt P20309); test: M3 (h) CEREP ligand profiling; settings: Compound concentration 10.0 uM
[16] = molecular target: P2X receptor (Rattus norvegicus) (UniProt P51579+P49653+P51578+Q64663+P47824+P51577+P49654); test: P2X CEREP ligand profiling; format: protein assay; settings: Compound concentration 10.0 uM
[17] = molecular target: P2Y receptor (Homo sapiens) (UniProt Q9H244+P51582+P47900+P41231+Q15391+Q15077+Q96G91+Q9BPV8); test: P2Y CEREP ligand profiling; format: protein assay; settings: Compound concentration 10.0 uM
[18] = molecular target: Adenosine receptor A3 (Homo sapiens) (UniProt P0DMS8); test: A3 CEREP ligand profiling; settings: Compound concentration 10.0 uM
[19] = molecular target: 5-hydroxytryptamine receptor 5A (Homo sapiens) (UniProt P47898); test: 5-HT5A (h) CEREP ligand profiling; settings: Compound concentration 10.0 uM
[20] = molecular target: Adenosine receptor A2a (Homo sapiens) (UniProt P29274); test: A2A (h) CEREP ligand profiling; settings: Compound concentration 10.0 uM
[21] = molecular target: Calcium-activated potassium channel (Homo sapiens) (UniProt Q92952+Q9UGI6+Q12791+O15554+Q9H2S1+A8MYU2); test: SK+ channel CEREP ligand profiling; format: protein assay; settings: Compound concentration 10.0 uM
[22] = molecular target: T4, GABA-A receptor; anion channel (Homo sapiens); test: BZD (central) CEREP ligand profiling; format: protein-complex assay; settings: Compound concentration 10.0 uM

C-C chemokine receptor type 1 (Homo sapiens), sequence (P32246 whole entry): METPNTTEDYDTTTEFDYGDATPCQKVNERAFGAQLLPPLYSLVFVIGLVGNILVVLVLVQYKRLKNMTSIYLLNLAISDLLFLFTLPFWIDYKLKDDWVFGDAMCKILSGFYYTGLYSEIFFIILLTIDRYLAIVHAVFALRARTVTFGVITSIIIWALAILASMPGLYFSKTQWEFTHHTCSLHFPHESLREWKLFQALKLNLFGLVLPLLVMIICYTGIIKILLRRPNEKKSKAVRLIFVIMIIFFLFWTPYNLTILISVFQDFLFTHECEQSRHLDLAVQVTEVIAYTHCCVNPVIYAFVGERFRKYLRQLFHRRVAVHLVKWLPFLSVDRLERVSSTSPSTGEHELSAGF
Sodium-dependent dopamine transporter (Homo sapiens), sequence (Q01959 whole entry): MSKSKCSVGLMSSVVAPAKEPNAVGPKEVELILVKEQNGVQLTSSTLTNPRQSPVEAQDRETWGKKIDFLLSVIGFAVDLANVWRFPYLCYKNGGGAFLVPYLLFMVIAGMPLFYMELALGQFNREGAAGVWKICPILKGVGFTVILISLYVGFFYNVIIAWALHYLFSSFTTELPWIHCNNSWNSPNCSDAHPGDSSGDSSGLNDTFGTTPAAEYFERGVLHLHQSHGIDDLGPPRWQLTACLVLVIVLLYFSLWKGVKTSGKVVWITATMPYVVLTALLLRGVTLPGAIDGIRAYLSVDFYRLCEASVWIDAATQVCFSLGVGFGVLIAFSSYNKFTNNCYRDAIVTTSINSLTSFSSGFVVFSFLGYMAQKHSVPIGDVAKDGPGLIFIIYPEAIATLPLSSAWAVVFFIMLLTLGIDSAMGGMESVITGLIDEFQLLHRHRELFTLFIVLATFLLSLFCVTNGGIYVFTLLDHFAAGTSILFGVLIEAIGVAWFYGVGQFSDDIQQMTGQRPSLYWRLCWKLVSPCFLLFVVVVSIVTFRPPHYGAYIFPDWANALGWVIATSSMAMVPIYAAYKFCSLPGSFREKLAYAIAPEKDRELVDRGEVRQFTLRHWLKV
Adenosine receptor A3 (Homo sapiens), sequence (P0DMS8 whole entry): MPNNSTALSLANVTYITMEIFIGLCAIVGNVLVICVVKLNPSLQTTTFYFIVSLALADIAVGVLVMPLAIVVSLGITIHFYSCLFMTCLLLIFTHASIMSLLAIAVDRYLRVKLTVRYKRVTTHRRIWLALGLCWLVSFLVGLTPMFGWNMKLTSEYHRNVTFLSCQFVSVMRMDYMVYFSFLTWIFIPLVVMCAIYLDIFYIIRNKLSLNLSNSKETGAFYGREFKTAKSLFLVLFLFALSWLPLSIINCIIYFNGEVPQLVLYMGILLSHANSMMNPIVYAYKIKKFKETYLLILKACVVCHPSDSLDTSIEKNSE
5-hydroxytryptamine receptor 5A (Homo sapiens), sequence (P47898 whole entry): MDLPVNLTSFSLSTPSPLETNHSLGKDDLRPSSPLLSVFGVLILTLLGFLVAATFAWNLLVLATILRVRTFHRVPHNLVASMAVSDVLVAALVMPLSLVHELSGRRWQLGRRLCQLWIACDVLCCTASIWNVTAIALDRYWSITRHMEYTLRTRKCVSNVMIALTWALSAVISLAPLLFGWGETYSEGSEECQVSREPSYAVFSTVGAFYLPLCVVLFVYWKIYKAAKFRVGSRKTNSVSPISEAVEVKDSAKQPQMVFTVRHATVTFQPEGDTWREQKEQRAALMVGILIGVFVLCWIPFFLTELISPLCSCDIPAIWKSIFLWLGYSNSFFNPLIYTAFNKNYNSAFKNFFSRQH
Adenosine receptor A2a (Homo sapiens), sequence (P29274 whole entry): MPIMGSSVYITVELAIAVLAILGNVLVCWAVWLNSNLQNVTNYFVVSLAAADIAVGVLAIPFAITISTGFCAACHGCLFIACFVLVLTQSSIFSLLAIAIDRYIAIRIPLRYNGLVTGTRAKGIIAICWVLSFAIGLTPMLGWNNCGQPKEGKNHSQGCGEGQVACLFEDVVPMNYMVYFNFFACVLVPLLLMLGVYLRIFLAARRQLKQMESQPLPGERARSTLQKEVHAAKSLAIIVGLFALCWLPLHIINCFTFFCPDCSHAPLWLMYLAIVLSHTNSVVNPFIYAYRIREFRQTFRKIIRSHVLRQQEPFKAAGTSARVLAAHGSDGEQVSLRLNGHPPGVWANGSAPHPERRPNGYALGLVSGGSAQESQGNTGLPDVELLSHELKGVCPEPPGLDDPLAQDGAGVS
Bombesin receptor (Homo sapiens), sequence (P28336 whole entry, looked up): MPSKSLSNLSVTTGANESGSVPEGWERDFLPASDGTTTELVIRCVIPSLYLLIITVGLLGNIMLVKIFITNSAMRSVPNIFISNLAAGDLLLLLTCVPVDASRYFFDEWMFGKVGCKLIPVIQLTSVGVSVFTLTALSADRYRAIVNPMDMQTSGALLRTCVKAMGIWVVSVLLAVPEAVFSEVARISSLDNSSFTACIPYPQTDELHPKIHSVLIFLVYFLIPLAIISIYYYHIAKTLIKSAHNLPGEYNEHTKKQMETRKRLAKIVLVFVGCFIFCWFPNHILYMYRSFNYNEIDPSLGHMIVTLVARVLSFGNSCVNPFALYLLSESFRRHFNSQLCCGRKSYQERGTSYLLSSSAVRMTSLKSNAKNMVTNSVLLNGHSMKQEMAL
Bombesin receptor (Homo sapiens), sequence (P30550 whole entry, looked up): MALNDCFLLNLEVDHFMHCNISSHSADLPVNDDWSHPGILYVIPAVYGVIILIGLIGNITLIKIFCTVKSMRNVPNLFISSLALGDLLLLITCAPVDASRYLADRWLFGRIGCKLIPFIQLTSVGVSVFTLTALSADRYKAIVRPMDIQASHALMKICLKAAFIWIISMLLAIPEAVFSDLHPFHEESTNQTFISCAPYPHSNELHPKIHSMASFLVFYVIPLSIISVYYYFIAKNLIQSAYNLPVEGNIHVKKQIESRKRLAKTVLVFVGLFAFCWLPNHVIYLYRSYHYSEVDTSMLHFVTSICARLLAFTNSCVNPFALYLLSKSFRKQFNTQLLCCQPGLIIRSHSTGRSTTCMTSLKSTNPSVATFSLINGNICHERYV
Bombesin receptor (Homo sapiens), sequence (P32247 whole entry, looked up): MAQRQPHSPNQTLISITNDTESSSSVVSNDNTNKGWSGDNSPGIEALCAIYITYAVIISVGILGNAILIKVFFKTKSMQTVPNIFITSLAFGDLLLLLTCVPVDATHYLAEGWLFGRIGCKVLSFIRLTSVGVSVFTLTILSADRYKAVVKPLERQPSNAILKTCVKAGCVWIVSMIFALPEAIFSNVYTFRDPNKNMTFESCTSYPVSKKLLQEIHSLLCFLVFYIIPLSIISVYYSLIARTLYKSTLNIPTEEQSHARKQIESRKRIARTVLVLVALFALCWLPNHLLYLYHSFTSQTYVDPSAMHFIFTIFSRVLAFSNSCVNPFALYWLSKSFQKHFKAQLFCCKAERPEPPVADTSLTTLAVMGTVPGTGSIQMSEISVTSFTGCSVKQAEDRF
Casein kinase I isoform gamma-3 (Homo sapiens), sequence (Q9Y6M4 whole entry, looked up, canonical isoform): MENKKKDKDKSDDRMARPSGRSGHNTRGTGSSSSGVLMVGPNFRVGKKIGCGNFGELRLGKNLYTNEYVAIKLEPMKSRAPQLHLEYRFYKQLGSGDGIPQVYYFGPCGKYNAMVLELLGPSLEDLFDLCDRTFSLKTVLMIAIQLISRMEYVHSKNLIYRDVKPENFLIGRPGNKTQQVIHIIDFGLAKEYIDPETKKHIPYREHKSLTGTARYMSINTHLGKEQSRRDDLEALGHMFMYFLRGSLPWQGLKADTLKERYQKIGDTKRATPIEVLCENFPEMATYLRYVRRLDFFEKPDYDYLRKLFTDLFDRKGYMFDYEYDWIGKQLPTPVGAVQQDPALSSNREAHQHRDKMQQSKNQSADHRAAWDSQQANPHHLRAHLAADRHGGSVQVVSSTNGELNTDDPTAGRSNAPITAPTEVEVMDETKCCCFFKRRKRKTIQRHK
Muscarinic acetylcholine receptor M3 (Homo sapiens), sequence (P20309 whole entry, looked up): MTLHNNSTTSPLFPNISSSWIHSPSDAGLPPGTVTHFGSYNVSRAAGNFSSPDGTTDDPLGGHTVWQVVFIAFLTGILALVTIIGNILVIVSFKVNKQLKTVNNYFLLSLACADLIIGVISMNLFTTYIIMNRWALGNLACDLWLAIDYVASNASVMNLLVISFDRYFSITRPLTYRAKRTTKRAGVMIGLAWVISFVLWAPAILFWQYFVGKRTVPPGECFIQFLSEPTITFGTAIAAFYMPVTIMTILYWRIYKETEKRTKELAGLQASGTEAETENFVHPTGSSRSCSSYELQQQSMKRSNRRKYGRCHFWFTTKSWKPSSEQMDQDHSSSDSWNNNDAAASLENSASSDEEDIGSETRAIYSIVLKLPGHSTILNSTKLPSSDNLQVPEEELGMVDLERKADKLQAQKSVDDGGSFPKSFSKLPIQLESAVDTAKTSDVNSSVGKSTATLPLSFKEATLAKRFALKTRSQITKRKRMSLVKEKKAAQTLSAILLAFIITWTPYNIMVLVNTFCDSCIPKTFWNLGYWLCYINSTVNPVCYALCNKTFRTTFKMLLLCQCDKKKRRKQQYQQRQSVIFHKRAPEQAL
Endothelin-1 receptor (Homo sapiens), sequence (P25101 whole entry): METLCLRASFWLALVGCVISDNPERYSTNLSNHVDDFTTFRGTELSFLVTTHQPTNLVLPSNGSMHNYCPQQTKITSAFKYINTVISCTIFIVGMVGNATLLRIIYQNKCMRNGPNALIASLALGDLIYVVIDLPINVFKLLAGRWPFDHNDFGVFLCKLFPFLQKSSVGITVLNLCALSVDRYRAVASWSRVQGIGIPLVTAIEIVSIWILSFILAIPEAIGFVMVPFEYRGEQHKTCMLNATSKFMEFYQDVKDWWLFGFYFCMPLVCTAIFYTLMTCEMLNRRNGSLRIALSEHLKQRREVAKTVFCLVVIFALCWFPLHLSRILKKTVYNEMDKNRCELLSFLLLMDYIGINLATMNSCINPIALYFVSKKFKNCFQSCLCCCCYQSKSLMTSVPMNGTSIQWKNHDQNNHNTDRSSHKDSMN

CCC(=N\O)/C(C)=C/c1ccc(F)c(C)c1 [A-226]
inactive: residual activity [1] 100% | residual activity [2] 100%

CCC(=N\O)/C(C)=C/c1ccc(F)cc1 [A-079]
3% (not active): inhibition at 10 µM [11]
inactive: inhibition [3] 5% | inhibition [4] 0.46% | inhibition [5] 8% | inhibition [6] -3% | inhibition [7] 13% | inhibition [8] 1% | inhibition [9] 5% | inhibition [10] 43% | inhibition [12] -3% | inhibition [13] -1% | inhibition [14] 26% | inhibition [15] 6% | inhibition [16] -2% | inhibition [17] 7% | inhibition [18] 27% | inhibition [19] 4% | inhibition [20] 8% | inhibition [21] -5% | inhibition [22] 1%
